Measured values as given in patent US20100210540A1, “USE OF THE PEPTIDE COMBINATION THYMOSIN BETA 4 AND DELTA SLEEP INDUCING PEPTIDE AS A THERAPEUTIC AGENT” (priority 2007, published 2010).
Where no end group is shown, it is not given here.

Key:
[1] = tested on: HIV-1III8; test: HIV-1 antiviral assay in CEM-SS cells (MTS readout)
[2] = tested on: HCMV strain AD169; test: HCMV plaque formation assay in MRC-5 cells; type: cell-based; details: for inhibition of HCMV plaque formation as compared to the virus control experiment: 10 micrograms per ml, 7-10 days
Source text: Ganciclovir was used as positive control.

[3] = tested on: hepatitis B virus (HBV) ayw strain; test: HBV experimental assay system (secreted HBV DNA, TaqMan PCR); type: cell-based; details: 10 micrograms per ml; HepG2-2.2.15 cells; six days
[4] = tested on: RAW 264.7 cells; test: Phagocytosis assay (Fluorescein-labeled Escherichia coli, flow cytometry); type: cell-based, Mouse; details: 10 micrograms per ml
Experimental: RAW 264.7 (Mouse leukaemic monocyte macrophage cell line) cells were obtained from ATCC and grown in RPMI 1640 medium containing 10% FBS. Cells were incubated in 12×75 mm tubes at 37° C. with test peptides—10 micrograms per ml—for 30 min prior to adding Fluorescein-labeled Escherichia coli bacteria as the agent to be ingested. After the cells were incubated for additional 60 min at 37° C. and allowed to ingest the Fluorescein-labeled Escherichia coli bacteria, cells were fixed with 1% paraformaldehyde. The samples were then analyzed by flow cytometry to determine the amount of phagocytosis as a function of brightness (the greater the phagocytic activity, the more fluorescence in the macrophage population). Data are reported as % positive and the mean fluorescence intensity (MFI) of positively stained cells.

[5] = Th1/Th2 cytokine profiling assay: IL-2; type: cell-based, Balb/c mice; details: 10 micrograms per ml; Ovalbumin restimulation; 72 hours
Source text: (§1) The Balb/c mice (originated in 1923, it is a popular strain and is used in many different research disciplines. Also classified as an inbred from the production of 20 or more successive brother-sister matings, the Balb/c mouse is albino and small in size) were immunized on Days 1, 15, and 29 with Ovalbumin (Ovalbumin is the main protein found in egg white, commonly used to stimulate an immunological reaction in test animals) in PBS (5 micrograms/injection). On day 50, spleens of the mice were harvested (3 weeks after last boost with Ovalbumin). Cells were cultured (2×10^5/well in triplicate) and incubated with culture medium or test peptides—10 micrograms per ml—for 30 min. Thereafter, additional Ovalbumin was added to the cells at 10 micrograms/ml for in vitro restimulation of the cells. 72 hours later, cell supernatants were harvested and assayed using the Becton Dickinson Mouse Th1fTh2 Cytokine CBA Kit. This kit can be used to measure Interleukin-2 (IL-2), Interleukin-4 (IL-4), Interleukin-5 (IL-5), Interferon-γ (IFN-γ), and Tumor Necrosis Factor-α (TNF-α) protein levels in a single sample. The kit performance has been optimized for analysis of physiologically relevant concentrations (pg/ml levels) of specific cytokine proteins in tissue culture supernatants and serum samples.

[6] = tested on: Interleukin-4 (IL-4); test: Th1/Th2 cytokine profiling assay: IL-4; type: cell-based, Balb/c mice; details: 10 micrograms per ml; Ovalbumin restimulation; 72 hours
Source text: as §1

[7] = tested on: Interleukin-5 (IL-5); test: Th1/Th2 cytokine profiling assay: IL-5; type: cell-based, Balb/c mice; details: 10 micrograms per ml; Ovalbumin restimulation; 72 hours
Source text: as §1

[8] = tested on: Interferon-γ (IFN-γ); test: Th1/Th2 cytokine profiling assay: IFN-γ; type: cell-based, Balb/c mice; details: 10 micrograms per ml; Ovalbumin restimulation; 72 hours
Source text: as §1

[9] = tested on: Tumor Necrosis Factor-α (TNF-α); test: Th1/Th2 cytokine profiling assay: TNF-α; type: cell-based, Balb/c mice; details: 10 micrograms per ml; Ovalbumin restimulation; 72 hours
Source text: as §1

[10] = tested on: Primary Human endothelial cells (HUVEC); test: Endothelial cell migration assay; type: cell-based; details: 10 micrograms per ml, 22 hours
Experimental: Thereafter, designated concentration of testing peptides—10 micrograms per ml—was added in duplicate wells.

[11] = tested on: HUVEC; test: Endothelial tube formation assay; type: cell-based, human; details: 10 micrograms per ml, 20 hours
Source text: Positive control was vehicle only.

[12] = tested on: cyclic AMP generation in human peripheral blood mononuclear cells (PBMC); test: cAMP induction assay (ELISA); type: cell-based; details: 10 micrograms per ml; 10 min at 37° C.
Source text: Adenosine 3′,5′-cyclic monophosphate (cyclic AMP; cAMP) is one of the most important “second messengers” involved as a modulator of physiological processes. cAMP is also involved in regulating neuronal, glandular, cardiovascular, immune and other functions and actions in a regulatory way. For being a second messenger, cAMP has the following characteristics to work effectively: 1) Amplification—when a few peptide molecules signal the cell, it needs to respond with a signal that is strong enough to get a job done without repeated high levels of stimulation. 2) Control—eventually a response must be shut down, and there are instances when its necessary to respond a little or a lot—so control is needed. 3)—Specificity—when a peptide is utilized, a given cell should respond in a specific way. Not all cells will respond to this peptide and therefore they cannot have the same effect in all the cells. Elevated levels of cAMP in human cells are associated with the suppression of cell activation.
The cAMP kit was used as an immunoassay for the quantitative determination of cyclic AMP generation in human peripheral blood mononuclear cells (PBMC). […]; 50 micrograms per ml), or test peptides—10 micrograms per ml—were added. […]. NaOH was added to neutralize the samples. Plates were centrifuged for 15 min at 2500 rpm and the supernatants removed. […]

## Cc1cn([C@H]2C[C@H](N=[N+]=[N-])[C@@H](CO)O2)c(=O)[nH]c1=O [AZT]
[1]
  antiviral activity of positive control compounds: expected levels of antiviral activity

## Nc1nc(O)c2ncn(COC(CO)CO)c2n1 [Ganciclovir, reference compound]
[2]; positive control
  antiviral activity of positive control compound: expected levels of antiviral activity

## CC(C)(C)NC(=O)[C@@H]1CN(Cc2cccnc2)CCN1C[C@@H](O)C[C@@H](Cc1ccccc1)C(=O)N[C@H]1c2ccccc2C[C@H]1O [indinavir]
[1]
  antiviral activity of positive control compounds: expected levels of antiviral activity

## Ac-Ser-Asp-Lys-Pro-Asp-Met-Ala-Glu-Ile-Glu-Lys-Phe-Asp-Lys-Ser-Lys-Leu-Lys-Lys-Thr-Glu-Thr-Gln-Glu-Lys-Asn-Pro-Leu-Pro-Ser-Lys-Glu-Thr-Ile-Glu-Gln-Glu-Lys-Gln-Ala-Gly-Glu-Ser-OH (SDKPDMAEIEKFDKSKLKKTETQEKNPLPSKETIEQEKQAGES; printed: Ser-Asp-Lys-Pro-Asp-Met-Ala-Glu-Ile-Glu-Lys-Phe-Asp-Lys-Ser-Lys-Leu-Lys-Lys-Thr-Glu-Thr-Gln-Glu-Lys-Asn-Pro-Leu-Pro-Ser-Lys-Glu-Thr-Ile-Glu-Gln-Glu-Lys-Gln-Ala-Gly-Glu-Ser-) [Peptide 1]
[3]
  inhibition of HBV replication on tested liver cells: no effect
[2]
  inhibition of HCMV plaque formation as compared to the virus control experiment: 1.0%
[4]; 30 min preincubation, 60 min ingestion
  phagocytosis induced, as compared to the control experiment: 45.7%
[5]
  production of IL-2 in murine spleen cells (induced by): did not significantly change
[6]
  production of IL-4 in murine spleen cells (induced by): 31.6%
[7]
  production of IL-5 in murine spleen cells (change): did not significantly change
[8]
  production of IFN-γ in murine spleen cells (decreased by): 52.7%
[9]
  production of TNF-alpha in murine spleen cells (change): did not significantly change
[10]
  inhibition of the migration of human endothelial cells: 3%
[11]
  inhibition of the tube formation of human endothelial cells: 23%
[12]
  cAMP formation in PBMC (induced by): 15.8%

## Trp-Ala-Gly-Gly-Asp-Ala-Ser-Gly-Glu-OH (WAGGDASGE-OH) [Peptide 2]
[3]
  inhibition of HBV replication on tested liver cells: no effect
[2]
  inhibition of HCMV plaque formation as compared to the virus control experiment: 4.4%
[4]
  inhibitory effects on the phagocytic activity of murine macrophages: no inhibitory effects
[5]
  production of IL-2 in murine spleen cells (induced by): 38.1%
[6]
  production of IL-4 in murine spleen cells (induced by): 70.6%
[7]
  production of IL-5 in murine spleen cells (change): did not significantly change
[8]
  production of IFN-γ in murine spleen cells (decreased by): 40.8%
[9]
  production of TNF-alpha in murine spleen cells (change): did not significantly change
[11]
  inhibition of the tube formation of human endothelial cells: 3%
[12]
  cAMP formation in PBMC (induced by): no effects
